In patent US8937080B2, “Pyrimidine substituted macrocyclic HCV inhibitors” (Medivir AB, priority 2007, dated 2015):
Read-outs that look alike come from different tables or passages of the source.

Assays:
[1] = molecular target: HCV NS3/4A protease complexes (full-length hepatitis C NS3 protease enzyme with NS4A cofactor) (Hepatitis C virus genotype 1a, UniProt P27958); assay: Inhibition assay (enzymatic assay, depsipeptide substrate hydrolysis); type: biochemical; conditions: enzyme 1 nM, 25 μM NS4A cofactor, 0.5 μM substrate, 30° C., competitive inhibition model
Description: The aim of this in vitro assay is to measure the inhibition of HCV NS3/4A protease complexes by the compounds of the present invention. This assay provides an indication of how effective compounds of the present invention would be in inhibiting HCV NS3/4A proteolytic activity.
The inhibition of full-length hepatitis C NS3 protease enzyme was measured essentially as described in Poliakov, 2002 Prot Expression & Purification 25 363 371. Briefly, the hydrolysis of a depsipeptide substrate, Ac-DED(Edans)EEAbuψ[COO]ASK(Dabcyl)-NH2 (AnaSpec, San José, USA), was measured spectrofluorometrically in the presence of a peptide cofactor, KKGSVVIVGRIVLSGK (Åke Engström, Department of Medical Biochemistry and Microbiology, Uppsala University, Sweden). [Landro, 1997 #Biochem 36 9340-9348]. The enzyme (1 nM) was incubated in 50 mM HEPES, pH 7.5, 10 mM DTT, 40% glycerol, 0.1% n-octyl-D-glucoside, with 25 μM NS4A cofactor and inhibitor at 30° C. for 10 min, whereupon the reaction was initiated by addition of 0.5 μM substrate. Inhibitors were dissolved in DMSO, sonicated for 30 sec. and vortexed. The solutions were stored at −20° C. between measurements.
The final concentration of DMSO in the assay sample was adjusted to 3.3%. The rate of hydrolysis was corrected for inner filter effects according to published procedures.
[Liu, 1999 Analytical Biochemistry 267 331-335]. Ki values were estimated by non-linear regression analysis (GraFit, Erithacus Software, Staines, MX, UK), using a model for competitive inhibition and a fixed value for Km (0.15 μM). A minimum of two replicates was performed for all measurements.

[2] = test system: HCV replicons (wild type NS3-NS5B regions of HCV type 1b) in Huh-7 luc/neo cells; assay: Replicon assay (Huh-Luc cells, luciferase readout); type: cell-based; conditions: Hepatitis C virus, Huh-7, 72 h, incubation of three days, luciferase activity
Description: The compounds of formula (I) were examined for activity in the inhibition of HCV RNA replication in a cellular assay. […] The cellular assay was based on a bicistronic expression construct, as described by Lohmann et al. (1999) Science vol. 285 pp. 110-113 with modifications described by Krieger et al. (2001) Journal of Virology 75: 4614-4624, in a multi-target screening strategy. In essence, the method was as follows.
The assay utilized the stably transfected cell line Huh-7 luc/neo (hereafter referred to as Huh-Luc). This cell line harbors an RNA encoding a bicistronic expression construct comprising the wild type NS3-NS5B regions of HCV type 1b translated from an Internal Ribosome Entry Site (IRES) from encephalomyocarditis virus (EMCV), preceded by a reporter portion (FfL-luciferase), and a selectable marker portion (neo^R, neomycine phosphotransferase). The construct is bordered by 5′ and 3′ NTRs (non-translated regions) from HCV type 1b. Continued culture of the replicon cells in the presence of G418 (neo^R) is dependent on the replication of the HCV RNA. The stably transfected replicon cells that express HCV RNA, which replicates autonomously and to high levels, encoding inter alia luciferase, are used for screening the antiviral compounds.
The replicon cells were plated in 384 well plates in the presence of the test and control compounds which were added in various concentrations. Following an incubation of three days, HCV replication was measured by assaying luciferase activity (using standard luciferase assay substrates and reagents and a Perkin Elmer ViewLux™ ultraHTS microplate imager). Replicon cells in the control cultures have high luciferase expression in the absence of any inhibitor. The inhibitory activity of the compound on luciferase activity was monitored on the Huh-Luc cells, enabling a dose-response curve for each test compound. EC50 values were then calculated, which value represents the amount of the compound required to decrease by 50% the level of detected luciferase activity, or more specifically, the ability of the genetically linked HCV replicon RNA to replicate.

[3] = rcm bond, 14-membered ring, Hoveyda-Grubbs II, DCE, 16.0 h

HCV NS3/4A protease complexes (full-length hepatitis C NS3 protease enzyme with NS4A cofactor), sequence (P27958 1027-1657, other chains not shown): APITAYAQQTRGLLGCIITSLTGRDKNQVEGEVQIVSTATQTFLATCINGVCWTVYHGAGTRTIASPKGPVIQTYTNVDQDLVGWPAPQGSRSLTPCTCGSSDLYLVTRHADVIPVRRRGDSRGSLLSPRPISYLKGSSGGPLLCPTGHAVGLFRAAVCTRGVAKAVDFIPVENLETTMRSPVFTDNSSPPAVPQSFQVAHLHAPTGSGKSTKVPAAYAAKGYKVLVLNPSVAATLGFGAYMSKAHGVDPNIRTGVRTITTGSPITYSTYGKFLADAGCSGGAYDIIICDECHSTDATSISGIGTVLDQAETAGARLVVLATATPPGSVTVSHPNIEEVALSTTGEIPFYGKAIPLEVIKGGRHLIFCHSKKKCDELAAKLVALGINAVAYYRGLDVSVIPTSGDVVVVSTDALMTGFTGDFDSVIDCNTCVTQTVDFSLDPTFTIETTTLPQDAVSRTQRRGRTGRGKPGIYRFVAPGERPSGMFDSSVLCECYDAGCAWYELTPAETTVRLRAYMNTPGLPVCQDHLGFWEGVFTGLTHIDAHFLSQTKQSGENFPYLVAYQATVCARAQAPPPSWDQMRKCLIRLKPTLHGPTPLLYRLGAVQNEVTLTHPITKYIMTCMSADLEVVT

Row | Structure (SMILES) | Ki [1] [nM] | EC50 [2] [nM] | ring closure, isolated yield ([3]; from C=CCCCCN(C)C(=O)C1CC(Oc2cc(OC)nc(-c3ccccc3)n2)CC1C(=O)NC1(C(=O)OCC)CC1C=C, 1.69 mM) [%] | ring closure, isolated yield ([3]; from C=CCCCCN(C)C(=O)C1CC(Oc2cc(C(C)(C)C)nc(OC)n2)CC1C(=O)NC1(C(=O)OCC)CC1C=C, 1.74 mM) [%]
1 | COc1nc(OC2CC3C(=O)NC4(C(=O)NS(=O)(=O)C5CC5)CC4C=CCCCCN(C)C(=O)N3C2)cc(-c2ccccc2)n1 (centres unmarked) [Example 1, Cyclopropanesulfonic acid [17-(2-methoxy-6-phenyl-pyrimidin-4-yloxy)-13-methyl-2,14-dioxo-3,13,15-triaza-tricyclo[13.3.0.0*4,6*]octadec-7-ene-4-carbonyl]-amide] | 0.1 to 4.9 | 1000 to 10000 |  | 
2 | COc1cc(OC2CC3C(=O)NC4(C(=O)NS(=O)(=O)C5(C)CC5)CC4C=CCCCCN(C)C(=O)C3C2)nc(-c2ccccc2)n1 (centres unmarked) [Example 7, 1-Methyl-cyclopropanesulfonic acid [17-(6-methoxy-2-phenylpyrimidin-4-yloxy)-13-methyl-2,14-dioxo-3,13-diaza-tricyclo[13.3.0.0*4,6*]octadec-7-ene-4-carbonyl]-amide] | 0.1 to 4.9 | 0.5 to 199 |  | 
3 | COc1nc(O[C@@H]2C[C@H]3C(=O)N[C@]4(C(=O)NS(=O)(=O)C5(C)CC5)C[C@H]4/C=C\CCCCN(C)C(=O)[C@@H]3C2)cc(C(C)(C)C)n1 [Example 5, 1-Methyl-cyclopropanesulfonic acid [17-(6-tert-butyl-2-methoxy-pyrimidin-4-yloxy)-13-methyl-2,14-dioxo-3,13-diaza-tricyclo[13.3.0.0*4,6*]octadec-7-ene-4-carbonyl]-amide] | 100 to 1000 | > 10000 |  | 
4 | CC(C)Nc1nccc(O[C@@H]2C[C@H]3C(=O)N[C@]4(C(=O)NS(=O)(=O)C5CC5)C[C@H]4/C=C\CCCCN(C)C(=O)[C@@H]3C2)n1 [Example 12, Cyclopropanesulfonic acid [17-(2-isopropylaminopyrimidin-4-yloxy)-13-methyl-2,14-dioxo-3,13-diaza-tricyclo[13.3.0.0*4,6*]octadec-7-ene-4-carbonyl]-amide] | 5 to 99.9 | > 10000 |  | 
5 | COc1nc(OC2CC3C(=O)NC4(C(=O)NS(=O)(=O)C5CC5)CC4C=CCCCCCNC(=O)N3C2)cc(-c2ccccc2)n1 (centres unmarked) [Example 2, Cyclopropanesulfonic acid [18-(2-methoxy-6-phenylpyrimidin-4-yloxy)-2,15-dioxo-3,14,16-triaza-tricyclo[14.3.0.0*4,6*]nonadec-7-ene-4-carbonyl]-amide] | 0.1 to 4.9 | 1000 to 10000 |  | 
6 | CCOC(=O)C12CC1C=CCCCCN(C)C(=O)C1CC(Oc3cc(OC)nc(-c4ccccc4)n3)CC1C(=O)N2 (centres unmarked) |  |  | 38 | 
7 | CCOC(=O)C12CC1C=CCCCCN(C)C(=O)C1CC(Oc3cc(C(C)(C)C)nc(OC)n3)CC1C(=O)N2 (centres unmarked) |  |  |  | 74
8 | COc1cc(O[C@@H]2C[C@H]3C(=O)N[C@]4(C(=O)NS(=O)(=O)c5cccs5)C[C@H]4/C=C\CCCCN(C)C(=O)[C@@H]3C2)nc(-c2ccccc2)n1 [Example 9, Thiophene-2-sulfonic acid [17-(6-methoxy-2-phenylpyrimidin-4-yloxy)-13-methyl-2,14-dioxo-3,13-diaza-tricyclo[13.3.0.0*4,6*]octadec-7-ene-4-carbonyl]-amide] |  | 1000 to 10000 |  | 
9 | COc1nc(OC2CC3C(=O)NC4(C(=O)NS(=O)(=O)C5CC5)CC4C=CCCCCN(C)C(=O)C3C2)cc(C(C)(C)C)n1 (centres unmarked) [Example 3, Cyclopropanesulfonic acid [17-(6-tert-butyl-2-methoxypyrimidin-4-yloxy)-13-methyl-2,14-dioxo-3,13-diaza-tricyclo[13.3.0.0*4,6*]octadec-7-ene-4-carbonyl]amide] | 5 to 99.9 | 1000 to 10000 |  | 
10 | COc1cc(OC2CC3C(=O)NC4(C(=O)NS(=O)(=O)C5CC5)CC4C=CCCCCCNC(=O)N3C2)nc(-c2ccccc2)n1 (centres unmarked) [Example 6, Cyclopropanesulfonic acid [18-(6-methoxy-2-phenylpyrimidin-4-yloxy)-2,15-dioxo-3,14,16-triaza-tricyclo[14.3.0.0*4,6*]nonadec-7-ene-4-carbonyl]-amide] | 0.1 to 4.9 | 0.5 to 199 |  | 
11 | COc1cccc(-c2cc(O[C@@H]3C[C@H]4C(=O)N[C@]5(C(=O)NS(=O)(=O)C6CC6)C[C@H]5/C=C\CCCCN(C)C(=O)[C@@H]4C3)nc(OC)n2)c1 [Example 24, Cyclopropanesulfonic acid {17-[2-methoxy-6-(3-methoxy-phenyl)-pyrimidin-4-yloxy]-13-methyl-2,14-dioxo-3,13-diaza-tricyclo[13.3.0.0*4,6*]octadec-7-ene-4-carbonyl}-amide] |  | 0.5 to 199 |  | 
12 | CN1CCCC/C=C\[C@@H]2C[C@@]2(C(=O)NS(=O)(=O)C2CC2)NC(=O)[C@@H]2C[C@@H](Oc3ccnc(N4CCOCC4)n3)C[C@H]2C1=O [Example 11, Cyclopropanesulfonic acid [13-methyl-17-(2-morpholin-4-yl-pyrimidin-4-yloxy)-2,14-dioxo-3,13-diaza-tricyclo[13.3.0.0*4,6*]octadec-7-ene-4-carbonyl]-amide] | 5 to 99.9 | > 10000 |  | 
13 | COc1ccc(-c2cc(OC3CC4C(=O)NC5(C(=O)NS(=O)(=O)C6CC6)CC5C=CCCCCN(C)C(=O)C4C3)nc(OC)n2)cc1 (centres unmarked) [Example 16, Cyclopropanesulfonic acid {17-[2-methoxy-6-(4-methoxy-phenyl)-pyrimidin-4-yloxy]-13-methyl-2,14-dioxo-3,13-diaza-tricyclo[13.3.0.0*4,6*]octadec-7-ene-4-carbonyl}-amide] | 0.1 to 4.9 | 200 to 990 |  | 
14 | CN1CCCCC=CC2CC2(C(=O)NS(=O)(=O)C2CC2)NC(=O)C2CC(Oc3cc(-c4ccccc4)nc(-c4ccccc4)n3)CC2C1=O (centres unmarked) [Example 17, Cyclopropanesulfonic acid [17-(2,6-diphenyl-pyrimidin-4-yloxy)-13-methyl-2,14-dioxo-3,13-diaza-tricyclo[13.3.0.0*4,6*]octadec-7-ene-4-carbonyl]-amide] | 0.1 to 4.9 | 200 to 990 |  | 
15 | COc1nc(O[C@@H]2C[C@H]3C(=O)N[C@]4(C(=O)NS(=O)(=O)C5(C)CC5)C[C@H]4/C=C\CCCCN(C)C(=O)[C@@H]3C2)cc(-c2ccccc2)n1 [Example 14, 1-Methyl-cyclopropanesulfonic acid [17-(2-methoxy-6-phenyl-pyrimidin-4-yloxy)-13-methyl-2,14-dioxo-3,13-diaza-tricyclo[13.3.0.0*4,6*]octadec-7-ene-4-carbonyl]-amide] | 5 to 99.9 | 200 to 990 |  | 
16 | COc1nc(O[C@@H]2C[C@H]3C(=O)N[C@]4(C(=O)NS(=O)(=O)C5(C)CC5)C[C@H]4/C=C\CCCCCNC(=O)N3C2)cc(-c2ccccc2)n1 [Example 4, 1-Methyl-cyclopropanesulfonic acid [18-(2-methoxy-6-phenylpyrimidin-4-yloxy)-2,15-dioxo-3,14,16-triaza-tricyclo[14.3.0.0*4,6*]nonadec-7-ene-4-carbonyl]-amide] | 0.1 to 4.9 | 200 to 990 |  | 
17 | COc1cccc(-c2cc(O[C@@H]3C[C@H]4C(=O)N[C@]5(C(=O)NS(=O)(=O)C6(C)CC6)C[C@H]5/C=C\CCCCN(C)C(=O)[C@@H]4C3)nc(OC)n2)c1 [Example 25, 1-Methyl-cyclopropanesulfonic acid {17-[2-methoxy-6-(3-methoxy-phenyl)-pyrimidin-4-yloxy]-13-methyl-2,14-dioxo-3,13-diaza-tricyclo[13.3.0.0*4,6*]octadec-7-ene-4-carbonyl}-amide] |  | 0.5 to 199 |  | 
